Laboratory results from patent US6013666A, “Oxirane carboxylic acid derivative and its manufacturing method” (Jew; Sang Sup, priority 1996, dated 2000).

Key:
[1] = test system: male diabetes-induced Sprague-Dawley rats; experiment: Blood glucose lowering effects on streptozotocin diabetes-induced rats; type: in vivo; conditions: Rattus norvegicus; STZ diabetes-induced rats, 50 mg/kg oral; measured at 90, 120 and 180 mins, smallest values taken; read-out: Blood glucose lowering rate %
Protocol: Blood Glucose Lowering Effects of the Compounds Prepared by the Procedures of Example 1~6, 11~18
Two groups of male diabetes-induced Sprague-Dawley rats (each of 4-5 rats weighing about 250 g) were used for this experiment. 45 mg/kg of streptozotocin (STZ) dissolved in 0.1M citrate buffer (pH 4.5, 0-4° C.) was injected to the tail vein of fasted rats for 1 day. After elapse of 7 days, their blood glucose concentration were measured and animals having the blood serum concentration of more than 350 mg/dl were used as diabetes-induced rats for this experiment. The rats were intravenously administered at a daily dose of 1 ml/kg, while the normal control group received equal volume of 0.1M citrate buffer.
7 days after being treated with streptozotocin, diabetes-induced rats were orally administered at a dose of 50 mg/kg of the compounds prepared by the procedures of Examples 1-6, 11~18. Then, at time intervals of 90 mins, 120 mins and 180 mins, their blood glucose concentrations were measured and the smallest values were taken. The compounds of […] were dissolved in 30% ethanol until its final concentration became 2 ml/kg, while the control group was orally received equal volume of 30% ethanol.
Significant difference between two groups was determined by ANOVA test, together with a post hoc test using Newman-Keuls test.

Mature rats = experiment: Acute toxicity test on rats, oral; type: in vivo; conditions: rats
Protocol: (§1) The acute toxicity tests on rats were performed using the compound prepared by the procedure of the Example 1. Mature rats weighing 200-250 g were orally given the compound of the Example 1 dissolved in ethylacetate in parallel with its gradually increasing concentration.

[2] = Acute toxicity test on rats, oral; type: in vivo; conditions: rat, in vivo, rats 200-250 g, dissolved in ethylacetate, calculated by number of killed animals
Protocol: as §1

[3] = phase II clinical trials; cited from earlier work

## CCOC(=O)C1(CCCCCCOC(=O)c2ccc(Cl)cc2)CO1 (stereo not drawn) [Example 1, Ethyl-2-[6-(4-chlorophenylcarboxyl)hexyl]-oxirane-2-carboxylic acid]
[1]
  inhibition in vivo at 50 mg/kg: 11.8%
Mature rats; dose 160 mg/kg
  number of killed animals/number of animals per group: 0/10
Mature rats; dose 300 mg/kg
  number of killed animals/number of animals per group: 1/10
Mature rats; dose 400 mg/kg
  number of killed animals/number of animals per group: 2/10
Mature rats; dose 500 mg/kg
  number of killed animals/number of animals per group: 5/10
Mature rats; dose 600 mg/kg
  number of killed animals/number of animals per group: 8/10
[2]
  LD50: 487 mg/kg

## CCOC(=O)C1(CCCCCCOC(=O)c2cnc(C)cn2)CO1 (stereo not drawn) [Example 2, Ethyl-2-[6-(5-methyl-2-pyrazincarboxyl)hexyl]-oxirane-2-carboxylic acid]
[1]
  inhibition in vivo at 50 mg/kg: 28.2%

## CCOC(=O)C1(CCCCCCOC(=O)c2cncc(Br)c2)CO1 (stereo not drawn) [Example 3, Ethyl-2-[6-(5-bromo-3-pyridincarboxyl)hexyl]-oxirane-2-carboxylic acid]
[1]
  inhibition in vivo at 50 mg/kg: 8.1%

## CCOC(=O)C1(CCCCCCOC(=O)c2ccc(OC)nc2OC)CO1 (stereo not drawn) [Example 4, Ethyl-2-[6-(2,6-dimethoxy-5-pyridincarboxyl)hexyl]-oxirane-2-carboxylic acid]
[1]
  inhibition in vivo at 50 mg/kg: 21.6%

## CCOC(=O)C1(CCCCCCOC(=O)c2cccs2)CO1 (stereo not drawn) [Example 5, Ethyl-2-[6-(2-thiophenecarboxyl)hexyl]-oxirane-2-carboxylic acid]
[1]
  inhibition in vivo at 50 mg/kg: 16.8%

## CCOC(=O)C1(CCCCCCOC(=O)c2cnccn2)CO1 (stereo not drawn) [Example 6, Ethyl-2-[6-(2-pyrazincarboxyl)hexyl]-oxirane-2-carboxylic acid]
[1]
  inhibition in vivo at 50 mg/kg: 24.1%

## CCOC(=O)C1(CCCCCCOCc2cccs2)CO1 (stereo not drawn) [Example 11, Ethyl-2-[6-(2-thiophenemethoxy)hexyl]oxirane-2-carboxylic acid]
[1]
  inhibition in vivo at 50 mg/kg: 75.9%

## CCOC(=O)C1(CCCCCCn2nc(C)cc2C)CO1 (stereo not drawn) [Example 12, Ethyl-2-[6-(3,5-dimethylpyrazole)hexyl]oxirane-2-carboxylic acid]
[1]
  inhibition in vivo at 50 mg/kg: 47%

## CCOC(=O)C1(CCCCCCOCc2ccc(OC)s2)CO1 (stereo not drawn) [Example 13, Ethyl-2-[6-(5-methoxy-2-thiophenemethoxy)hexyl]oxirane-2-carboxylic acid]
[1]
  inhibition in vivo at 50 mg/kg: 5.9%

## CCOC(=O)C1(CCCCCCOCc2ccc(C)s2)CO1 (stereo not drawn) [Example 14, Ethyl-2-[6-(5-methyl-2-thiophenemethoxy)hexyl]oxirane-2-carboxylic acid]
[1]
  inhibition in vivo at 50 mg/kg: 33.7%

## CCOC(=O)C1(CCCCCCOCc2ccc(C)o2)CO1 (stereo not drawn) [Example 15, Ethyl-2-[6-(5-methyl-2-furanmethoxy)hexyl]oxirane-2-carboxylic acid]
[1]
  inhibition in vivo at 50 mg/kg: 6.8%

## CCOC(=O)C1(CCCCCCOCCc2cccs2)CO1 (stereo not drawn) [Example 16, Ethyl-2-[6-(2-thiophenethoxy)hexyl]oxirane-2-carboxylic acid]
[1]
  inhibition in vivo at 50 mg/kg: 5.6%

## CCOC(=O)C1(CCCCCCOCc2ccc(Cl)s2)CO1 (stereo not drawn) [Example 17, Ethyl-2-[6-(5-chloro-2-thiophenemethoxy)hexyl]oxirane-2-carboxylic acid]
[1]
  inhibition in vivo at 50 mg/kg: 19.2%

## CCOC(=O)C1(CCCCCCOCc2sccc2Cl)CO1 (stereo not drawn) [Example 18, Ethyl-2-[6-(3-chloro-2-thiophenemethoxy)hexyl]oxirane-2-carboxylic acid]
[1]
  inhibition in vivo at 50 mg/kg: 30.7%

## CCOC(=O)[C@@]1(CCCCCCOc2ccc(Cl)cc2)CO1 [etomoxir]
[3]
  side effects associated with prolonged administration: enlarged heart and toxicity in the liver
